Results on 18 molecules are retold here after ChEMBL document CHEMBL1136364, “Synthesis and antimalarial activity of 2-methoxyprop-2-yl peroxides derivatives” (Bioorg Med Chem Lett, 2003).

In the assay the test system is Plasmodium falciparum. Briefly: In vitro antimalarial activity against Plasmodium falciparum FCR3. In kind it is functional, organism-based.
By IC50 is commonly meant the concentration that inhibits the measured activity by half. A high value points to lower potency. Regarding `CCCCCCCOOC(C)(C)OC`, half-maximal inhibition (IC50) was put at 0.8 µM.

`CCCCCCOOC(C)(C)OC` gave an IC50 of 1.55 µM.

Regarding `COC(C)(C)OOCCCc1ccccc1`, the IC50 was determined as 0.66 µM.

In the case of `COCCOOC(C)(C)OC`, half-maximal inhibition (IC50) was put at 3.2 µM.

Molecule `CCOC(=O)CCCOOC(C)(C)OC` displayed an IC50 of 6.95 µM.

Regarding `C[C@@H]1CC[C@H]2[C@@H](C)C(=O)O[C@@H]3O[C@@]4(C)CC[C@@H]1[C@]32OO4` [ARTEMISININ], the IC50 came out at 0.055 µM.

For `COC(C)(C)OOCCC(C)C`, the IC50 was determined as 1.65 µM.

`COC(C)(C)OOCCCOc1ccccc1` had an IC50 of 0.87 µM.

Regarding `COC(C)(C)OOCCc1ccccc1`, the IC50 worked out at 0.52 µM.

Molecule `COC(C)(C)OOCCCCC1=CC[C@H]2C[C@@H]1C2(C)C` returned an IC50 of 0.48 µM.

With `CCCCCCCCCCCCOOC(C)(C)OC`, the IC50 was 0.67 µM.

`CCCCCCCCCCCCCCCCCCOOC(C)(C)OC` returned an IC50 of 1.33 µM.

Molecule `COC(C)(C)OOCCCC#N` registered an IC50 of 12.8 µM.

`CO[C@H]1O[C@@H]2O[C@@]3(C)CC[C@H]4[C@H](C)CC[C@@H]([C@H]1C)[C@@]24OO3` [ARTEMETHER] gave an IC50 of 0.014 µM.

`COC(C)(C)OOCCCC1=CC[C@H]2C[C@@H]1C2(C)C` showed an IC50 of 0.6 µM.

With `CCCCCCCCCCCCCCCCOOC(C)(C)OC`, inhibition was half-maximal at 0.44 µM (IC50).

Regarding `CCCCCCCCOOC(C)(C)OC`, the IC50 was found to be 2.6 µM.

`COC(C)(C)OOCCC1=CC[C@H]2C[C@@H]1C2(C)C` yielded an IC50 of 0.37 µM.
